{
  "source": "patent US20200101056A1",
  "about": "“USE OF ROCK INHIBITORS FOR PROMOTING SINONASAL EPITHELIAL CELL REPAIR” (priority 2018, published 2020)",
  "assay_type_in_all_cases": "cell-based, human",
  "key": {"[1]": {"test_system": "pNECs monolayers from CRSwNP patients", "test": "Wound healing assay (epithelial repair rate) of injured pNECs monolayers from CRSwNP patients", "details": "6 h", "experimental": "diagnosis was performed according to the 2004 AAO-HNS guidelines^31, and patients underwent ESS following failure of medical treatment. Control patients underwent ESS for cerebral spinal fluid leak or non-secreting pituitary adenomas. Exclusion criteria for both groups comprised immune deficiencies, neoplasia, ciliary dyskinesia, cystic fibrosis, and systemic immunosuppression. Tissues obtained during surgery at the level of anterior ethmoidal bulla (control) or the polyp itself ([…]) were immediately collected for subsequent cell isolation and culture. After recovery, pNECs were isolated following a standardized procedure^32-35. […] After 18 h, Fetal Bovine Serum was added to the solution to neutralize the protease-DNase activity, and pNECs were gently scraped off the remaining tissue. […] Images were registered using AxioVisionTM 4.8 software (Carl Zeiss, Jena, Germany) and then analyzed with Image J software (NIH, Bethesda, Md., USA) to measure areas at t=0 h and t=6 h of wound healing and then to calculate the repair rates (expressed in μm^2/h)."}, "[2]": {"test_system": "pNECs from CRSwNP patients", "test": "Analysis of lamellipodial dynamics by kymograph, pNECs from CRSwNP patients", "details": "SA 0.5% + Y-27632 5 μM, 0-2 h and 2-4 h, CRSwNP pNECs (FIG. 6)", "experimental": "Brightfield time-lapse series were made on pNECs from patients with CRSwNP and control subjects plated in 2-well silicone culture inserts (Ibidi #80209, Fitchburg, USA) using an inverted Axio ObserverZ1 microscope equipped with a CoolSNAP™ EZ CCD camera and a 10×/0.3 NA air objective lens, and then analyzed by AxioVision™ software.\nImmediately prior to image acquisition, cells were treated with LB (control condition for SA) or LB+water (control condition for SA+Y-27632). Cells were then positioned into the incubation chamber (37° C., 5% CO2) and images were captured every minute for 2 h to observe cell protrusions and retractions. Then, cells were treated with either SA exoproducts (concentration of 0.5% (v/v)) or a mix of SA (concentration of 0.5% v/v) and Y-27632 (5 μM), with the recording pursued during the following 4 h.\nA one pixel-wide line crossing the cell membrane perpendicularly to the lamellipodia was drawn, and this region was extracted from each image of the time-lapse series, as previously described by Choi et al.^38. […] Data derived from these segmented lines were generated using “read velocity tsp macro” of ImageJ and used to calculate the length and velocity of each protrusion. At least a total of 40-110 individual protrusion events per condition and at least 14 different cells were analyzed in 3 independent time-lapse series."}, "[3]": {"test_system": "nasal epithelia from CRSwNP patients", "test": "Immunofluorescence of cytoskeleton and lamellipodial cell quantification at the wound edge, nasal epithelia from CRSwNP patients", "details": "4 h", "experimental": "pNECs were grown to confluency on coverslips (precision cover glasses thickness No. 1.5H, Marienfeld, Lauda-Konigshofen, Germany) coated with Purecol™. After injury, (3 mechanical wounds/coverslip), cell monolayers were washed and then treated with either: 1) LB (concentration of 0.5% (v/v)): negative control, 2) SA exoproducts (concentration of 0.5% (v/v) SA filtrate) and 3) SA exoproducts (concentration of 0.5% (v/v) SA filtrate) and Y-27632 (5 μM). After 4 h of repair, cell monolayers were fixed with 4% paraformaldehyde in PBS for 5 min, permeabilized with 0.1% Triton™ X-100 in PBS for 10 min. After blocking (in 1% BSA in PBS for at least 1h at 4° C.), fixed cells were incubated with the primary anti-β-tubulin antibody (1:1000 in PBS+BSA1%, Millipore, Etobicoke, Canada) for 1 h at room temperature, and then with Alexa Fluor®-488 conjugated goat anti-mouse antibody secondary antibody (1:2000 in PBS+BSA1%,1 h, room temperature Thermo Fischer Scientific, Waltham, USA). F-actin was stained with Phalloidin-Alexa Fluor® 594 (1 unit, Thermo Fischer Scientific) (in PBS+BSA1%, for 1 h at room temperature) and nuclei with DAPI (1:1000 in PBS+BSA1%, for 5 min). Coverslips were mounted with ProLong® Gold Antifade Reagent (Molecular Probes, Eugene, USA) on SuperFrost™ glass slides (Thermo Fisher Scientific). Images were acquired with an inverted confocal microscope (TCS SP5, Leica Microsystems, Wetzlar, Germany) using an oil-immersion objective 63×/1.4. On immunofluorescence images, cells at the wound edge were classified according to the categories “with” or “without” lamellipodia as well as “ambiguous morphology” (see FIG. 10)^39. Percentages of cells in each category were then calculated."}, "[4]": {"test_system": "pNEC", "test": "Pilot study of Y-27632 dose on epithelial repair in pNEC", "text": "pNECs were injured mechanically (3 wounds/well, 3 wells/condition), using a well-established, highly reproducible technique^32,34,37. After wounding, the cultures were washed to remove detached cells, and then randomly treated in either of the following conditions (performed in triplicate): 1) negative control: 0.5% (v/v) of LB, 2) exposure to SA exoproducts, (at both concentrations of 0.25% and 0.5% (v/v) SA filtrate), and 3) exposure to SA exoproducts (both concentrations of 0.25% and 0.5% (v/v) SA filtrate) and the ROCK inhibitor Y-27632 dihydrochloride (5 μM, Sigma-Aldrich®).\nA mark on wells allowed us to capture images of the wounds at exactly the same place at t=0 h and t=6 h using an inverted microscope with a 4× objective (Nikon Eclipse™ TE 2000). Images were registered using AxioVision™ 4.8 software (Carl Zeiss, Jena, Germany) and then analyzed with Image J software (NIH, Bethesda, Md., USA) to measure areas at t=0 h and t=6 h of wound healing and then to calculate the repair rates (expressed in μm^2/h).\nThe effect of a potent Rho kinase (ROCK) inhibitor, Y-27632, on epithelial repair in pNECs exposed to SA exoproducts was assessed. It was first determined, in a pilot study, that 5 μM was the optimal dose for Y-27632 in pNEC."}, "[5]": {"details": "CRSwNP, SA 0.5% + vehicle (SA) or SA 0.5% + Y-27632 5 μM (SA+Y) (FIG. 7B)"}},
  "data": [
    {"compound": "C[C@@H](N)[C@H]1CC[C@H](C(=O)Nc2ccncc2)CC1", "note": "[Y-27632]", "values": [
      {"measurement": "increase of repair rates compared to corresponding SA condition in the absence of Y-27632", "setting": "[1]; Y-27632 5 μM co-cultured with SA 0.25%", "result": 1.86, "unit": "fold"},
      {"measurement": "increase of repair rates compared to corresponding SA condition in the absence of Y-27632", "setting": "[1]; Y-27632 5 μM with SA 0.5%", "result": 2.22, "unit": "fold"},
      {"measurement": "length and velocity of protrusions after SA+Y vs. LB", "setting": "[2]", "result": "non-significant"},
      {"measurement": "cells with lamellipodia", "setting": "[3]; [5]", "result": 65, "unit": "%"},
      {"measurement": "cells without lamellipodia", "setting": "[3]; [5]", "result": 8, "unit": "%"},
      {"measurement": "lamellipodial extensions at the leading edge (cytoskeleton organization)", "setting": "[3]; SA 0.5% + Y-27632 5 μM, CRSwNP (FIG. 7A)", "result": "partially restored lamellipodial extensions"},
      {"measurement": "increase in epithelial repair rate", "setting": "[4]; 5 μM, in LB condition", "result": 23, "unit": "%"},
      {"measurement": "effect of increasing concentrations on pNECs", "setting": "[4]; concentrations above 5 μM", "result": "altered migration and induced pNECs apoptosis"},
      {"measurement": "optimal dose in pNEC", "setting": "[4]; pilot study", "result": 5, "unit": "μM"}
    ]}
  ]
}
